Test results published in patent publication US8628961B2, “Small molecule antagonists of phosphatidylinositol-3,4,5-triphosphate (PIP3) and uses thereof” (Tufts University, priority 2010, dated 2014).

Tests used:
[1] = biological target: R86A mutant of the PH domain (Homo sapiens (Human), UniProt P31749, R86A); assay: NMR HSQC binding analysis, mutant PH domain
U87MG cells [2] = assay: Combination with Akt kinase inhibitors in U87MG cells (western blot, ATP assay); assay type: cell-based, human; settings: 100 μM PIT-1 with 10 μM Akt inhibitor
Method: U87MG cells were treated with 100 μM PIT-1, or 10 μM Akt inhibitor VIII (Calbiochem) or Akt inhibitor (Calbiochem), or 100 μM PIT-1 together with 10 μM Akt inhibitor VIII or Akt inhibitor, for 12 hr and then phosphorylation events were evaluated by western blot.

[3] = biological target: PH domain of Akt (His6-Akt123) (Homo sapiens (Human), UniProt P31749); assay: NMR 2D HSQC binding analysis
Chain of PH domain of Akt (His6-Akt123) (P31749 1-123): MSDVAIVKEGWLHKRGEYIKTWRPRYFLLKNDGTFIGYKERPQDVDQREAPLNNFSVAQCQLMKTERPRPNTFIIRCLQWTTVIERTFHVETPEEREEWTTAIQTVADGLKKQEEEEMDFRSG
Method: To further characterize the mode of action of PIT-1, NMR-based analyses of PIT-1 binding to the PH domain of Akt were performed. […] PIT-1 was further titrated to identify residues primarily affected by the small molecule binding. Using published Akt2 HSQC peak assignments (Auguin D et al. (2004) J Biomol NMR 28:137-55), it was observed that the residues Trp22 (W22), Tyr26 (Y26), and Asn54 (N54), located in the PIP3 binding pocket of the Akt PH domain, are primarily affected by PIT-1. Changes in other crosspeak signals were observed only at the 2× access of PIT-1.

U87MG cells [4] = assay: Cell death with pan-caspase inhibitor zVAD.fmk, Sytox assay; assay type: cell-based, human; settings: 100 μM zVAD.fmk
Method: FIG. 11 is a bar graph depicting that cell death triggered by PIT-1 alone or in combination with TRAIL is inhibited by pan-caspase inhibitor zVAD.fmk. U87MG cells were incubated with or without 100 μM zVAD.fmk together with PIT-1 (25, 50, 100 μM) in the presence or absence of 10 ng/ml TRAIL for 24 hr, and analyzed by Sytox cell death assay.
(§1) Since PI3K/PIP3/Akt signaling plays a critical role in the inhibition of apoptosis (Datta S R et al. (1999) Genes Dev 13:2905-27), the possibility that PITs induce apoptosis was examined. […] Proapoptotic Bcl-2 family members Bax and Bak are important mediators of apoptosis. Wei M C et al. (2001) Science 292:727-30. […] Non-apoptotic mechanisms of cell death may also play some additional, albeit less important, role in PIT-induced killing, as some cell death was still observed in Bax/Bak-deficient cells and in the presence of zVAD.fmk.

apoptosis = assay: Apoptosis features: subG1 DNA content, Western blot of caspase-3 and PARP; assay type: cell-based
Source text: as §1

[5] = Cell death under glucose/glutamine deprivation; assay type: cell-based
[6] = tested on: PI3K/PDK1/Akt signaling pathway; assay: PIP3-dependent phosphorylation events in HUVEC, Western blotting; assay type: cell-based, human; settings: 50, 100 and 200 μM, 2 hr, bFGF
Method: Endothelial cell migration plays a central role in tumor angiogenesis. Avraamides C J et al. (2008) Nat Rev Cancer 8:604-17. […] First, human umbilical vein endothelial cells (HUVEC) cells were serum starved overnight, and treated with different concentrations of PIT-1 (50, 100 and 200 μM) for 2 hr, followed by stimulation with 10 ng/ml bFGF for 15 min, and the PIP3-dependent phosphorylation events were evaluated by Western blotting.

PLC-δ PH domain = PLC-δ PH domain (Homo sapiens (Human), UniProt P51178); assay: FP PIP2/PLC-δ PH domain binding assay; settings: FIG. 5
Chain of PLC-δ PH domain (P51178 21-130): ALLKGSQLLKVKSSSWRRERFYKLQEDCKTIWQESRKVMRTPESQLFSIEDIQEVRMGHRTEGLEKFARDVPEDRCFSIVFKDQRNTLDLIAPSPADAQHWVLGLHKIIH
Method: FIG. 5 is a graph depicting specificity and concentration-dependent competitive inhibition of PIP3-PH domain interaction by PIT-1 and PIT-2. 15 nM TMR-conjugated PIP2 were incubated with 100 nM PLC-δ PH domain in the presence or absence of the indicated concentrations of PITs (0-200 μM) for 30 min, followed by FP measurement.
In order to identify compounds that disrupt the interaction between PIP3 and PH domains, a high-throughput fluorescence polarization (FP)-binding assay was developed using recombinant 1-123 amino acid N-terminal fragment of human Akt1 (also referred to herein simply as Akt), encompassing the PH domain (PH123 protein), and fluorescent NBD-labeled PIP3 molecule. The amino acid sequence of human Akt1 is publicly available as, for example, GenBank Accession No. NP_001014432.1 (SEQ ID NO:1), and the corresponding DNA sequence is publicly available as, for example, GenBank Accession No. NM_001014432. Briefly, 5 μM recombinant GST fusion proteins containing 1-123 a.a. N-terminal fragment of human Akt1 (PH 123) or 100 nM 441-551 a.a. region of human PDK1 were incubated with 15 nM TMR-labeled PIP3, PIP2, or PIP5 in buffer containing 50 mM Tris-HCl (pH 7.5), 150 mM NaCl, and 5 mM b-ME for 15 min at room temperature in the dark. FP values were determined using Wallac Victor 3 plate reader. […]

Chain of R86A mutant of the PH domain (P31749 1-123 R86A): as the sequence (P31749 1-123) above, with R86A counted along it

## O=C(NC(=S)Nc1cc([N+](=O)[O-])cc(Cl)c1O)c1ccccc1 [PIT-1]
[1]
  effect on R86A mutant PH domain (HSQC): no effect
U87MG cells [2]
  combination with Akt kinase inhibitors: Akt activation, downstream phosphorylation, cell survival: acted synergistically
[3]
  changes in 2D HSQC 1H-15N correlation spectrum of His6-Akt123: induces significant changes
U87MG cells [4]
  cell death, alone or with TRAIL, in presence of zVAD.fmk: inhibited by a pan-caspase inhibitor zVAD.fmk
apoptosis; P<0.01
  subG1 DNA content in cells: significant increase in subG1 DNA content
apoptosis; Western blot
  cleavage/activation of caspase-3 and processing of PARP: induced the cleavage/activation
[5]
  cell death in combination with glucose/glutamine deprivation: dramatic induction of cell death
[6]
  PI3K/PDK1/Akt signaling in HUVEC: capable of blocking PI3K/PDK1/Akt signaling pathway
PLC-δ PH domain
  inhibition of interaction between PIP2 and PH domain of PLC-δ: failed to inhibit
